Literature values as cited in PMC9795861, “Inclusion complexes of the steroid hormones 17β-estradiol and progesterone with β- and γ-cyclodextrin hosts: syntheses, X-ray structures, thermal analyses and API solubility enhancements” (Beilstein Journal of Organic Chemistry, 2022).
Like-named read-outs stand apart in the source and are kept apart here.

Experiments:
[1] = design: method as in earlier work

| aqueous solubility (at 27 °C, ethinylestradiol) | oral bioavailability relative to that of BES [1] | aqueous solubility (at 25 °C, pure progesterone, ref 6-8 (b3)) | Structure (SMILES) |
| --- | --- | --- | --- |
| 11.3 × 10^−3 mg·cm^−3 | significantly higher |  | C#C[C@]1(O)CC[C@H]2[C@@H]3CCc4cc(O)ccc4[C@H]3CC[C@@]21C [ethinylestradiol] |
|  |  | 8.81 × 10^−3 mg·cm^−3 | CC(=O)[C@H]1CC[C@H]2[C@@H]3CCC4=CC(=O)CC[C@]4(C)[C@H]3CC[C@]12C [progesterone] |
